Experimental data from US8222231B2, “Derivatives of partially desulphated glycosaminoglycans endowed with antiangiogenic activity and devoid of anticoagulating effect” (Sigma-Tau Industrie Farmaceutiche Riunite SpA, priority 2000, dated 2012).
Blank lines part the entries; values can stand above or below the substance they belong to.

Experiments:
[1] = tested on: CAM; settings: in the presence of corticosteroids; compared with heparin; cited from earlier work
[2] = target: T1, FGFR/FGF2/HSPG ternary complex (Homo sapiens, UniProt P09038); test: Inhibition of FGF2-mediated intercellular adhesion of CHO-K1 and CHO-745flg cells; type: cell-based, Chinese hamster
T1 construct: expressed in transfected cells; host or cells: CHO 745/flg (HSPG-deficient CHO mutants transfected with FGFR-1); fixed CHO-K1 monolayer supplies HSPGs; FGF-2 added to the medium
T1 sequence (P09038 143-288, one chain of several): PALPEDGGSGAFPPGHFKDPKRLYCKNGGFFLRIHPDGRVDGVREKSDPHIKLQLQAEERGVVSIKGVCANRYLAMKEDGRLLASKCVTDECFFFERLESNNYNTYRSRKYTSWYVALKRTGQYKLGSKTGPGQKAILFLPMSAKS
Text: To this end an in-vitro model was designed capable of assessing the interference of the various different heparin derivatives with bFGF binding to its own receptor.
These latter cells were stably transfected with cDNA for green fluorescent protein and for this reason could be observed under the fluorescence microscope with a combination of filters for the detection of green emission. In brief, the technique is based on the possibility that the two types of cells may interact (form stable bonds) only if FGF is added to the two cell types. In fact, in this case, the heparan sulphates of the CHO-745flg cells will bind to FGF, which in turn will bind to the CHO-K1 cells, establishing a bridge. The binding that occurs is detectable as a result of the green fluorescence emitted by the CHO-745flg cells.
CHO-K1 cells were seeded at a density of 90,000 cells/cm2 in 24-well plates. After 24 hours the cells were fixed in 3% glutaraldehyde in PBS for 2 hours at 4° C. and washed with 0.1 M glycine/PBS. […] After 2 hours' incubation at 37° C., the adhering cells were counted under the inverted microscope. The results were expressed as percentage of the number of cells adhering compared to those measured in the absence of the test compounds. […]

[3] = tested on: chick embryo chorioallantoic membrane; test: Angiostatic activity on chick embryo chorioallantoic membrane (CAM) model; settings: in vivo
Method: For the study of angiogenesis the model used was the chick embryo chorioallantoic membrane model (Ribatti e al. Int. J. Dev. Biol., 40, 1189 (1996)).
300 embryonated hens' eggs were incubated at 37° C. in constant humidity conditions. On the 3rd day of incubation, after aspirating 2-3 ml of albumen from the acute pole of the egg so as to detach the CAM from the shell, a window was cut with scissors in the shell. The vessels underlying the CAM were thus exposed. The window was closed with a transparent glass panel and the eggs were put back into the incubator. […] The experiments were discontinued on the 12th day of incubation, when an overall assessment of the angiogenic activity of the molecules was carried out, expressed as percentage inhibition in relation to the number of experiments initiated and completed (Table 9). In addition, for compound ST1514, assayed at the concentration of 100 μg/embryo, a macroscopic quantitative evaluation of the angiostatic activity was also carried out according to the technique proposed by Brooks et al. (Science, 264, 569, (1994)), counting the number of vessels surrounding the sponge. […]

[4] = Evaluation of heparin toxicity in Balb/c mice; type: in vivo; settings: 50 mg/kg and 25 mg/kg subcutaneously, q2dx5
Method: 20 6-week-old female Balb/c mice weighing 20 g (Harlan), divided into groups by casual randomisation, were treated with heparin sodium, as a reference, and with the compound according to the present invention called STI514. The treatment schedule was of the q2dx5 type, i.e. 5 total administrations at intervals of 2 days, administering 200 μl/mouse of 50 mg/kg/10 ml and 25 mg/kg/10 ml solutions subcutaneously.
Heparin sodium: the solution is prepared by solubilizing 160 mg of powder in 4 ml of PBS 1× pH 7.4 free of Ca^++-and Mg^++-ions; it is subdivided into aliquots of 243 μl and stored at −20° C. At the time of treatment, the solution is diluted in Ca^++-and Mg^++-free PBS (Dulbecco, modified formula) 1×, pH 7.4 so as to have the substance at final concentrations of 50 mg/kg/10 ml and 25 mg/kg/10 ml.
ST1514: the solution is prepared by solubilizing 160 mg of powder in 4 ml of Ca^++-and Mg^++-free PBS 1×, pH 7.4; it is subdivided into aliquots of 243 μl and stored at −20° C. […]
Full blood count: the appliance (Cell Analyzer 580 A, DELCON) is used according to the standard procedure described in the operating manual. […] This solution is used for the WBC reading. Solution B, on the other hand, is used for the RBC and platelet (PLT) readings. Each sample is read in duplicate.
The data obtained will be analyzed using ANOVA.

Substance: 2-O-desulfated heparin
- antiangiogenic activity as assessed by means of the CAM test [1]: partly maintained the antiangiogenic activity of heparin

- Cell-Cell Adh. (ID50, ng/mL), inhibition of FGF2-mediated cell-cell adhesion [2]: 100 ng/mL
Substance: Heparin
- Angiostatic activity on CAM model (stated in words) [3]: no activity

Substance: heparin sodium
- liver characteristics at autopsy [4]: livers with abnormal characteristics
